For orientation: IC50 means the concentration at which inhibition is half-maximal.

human TRPA1, sequence (O75762 whole entry): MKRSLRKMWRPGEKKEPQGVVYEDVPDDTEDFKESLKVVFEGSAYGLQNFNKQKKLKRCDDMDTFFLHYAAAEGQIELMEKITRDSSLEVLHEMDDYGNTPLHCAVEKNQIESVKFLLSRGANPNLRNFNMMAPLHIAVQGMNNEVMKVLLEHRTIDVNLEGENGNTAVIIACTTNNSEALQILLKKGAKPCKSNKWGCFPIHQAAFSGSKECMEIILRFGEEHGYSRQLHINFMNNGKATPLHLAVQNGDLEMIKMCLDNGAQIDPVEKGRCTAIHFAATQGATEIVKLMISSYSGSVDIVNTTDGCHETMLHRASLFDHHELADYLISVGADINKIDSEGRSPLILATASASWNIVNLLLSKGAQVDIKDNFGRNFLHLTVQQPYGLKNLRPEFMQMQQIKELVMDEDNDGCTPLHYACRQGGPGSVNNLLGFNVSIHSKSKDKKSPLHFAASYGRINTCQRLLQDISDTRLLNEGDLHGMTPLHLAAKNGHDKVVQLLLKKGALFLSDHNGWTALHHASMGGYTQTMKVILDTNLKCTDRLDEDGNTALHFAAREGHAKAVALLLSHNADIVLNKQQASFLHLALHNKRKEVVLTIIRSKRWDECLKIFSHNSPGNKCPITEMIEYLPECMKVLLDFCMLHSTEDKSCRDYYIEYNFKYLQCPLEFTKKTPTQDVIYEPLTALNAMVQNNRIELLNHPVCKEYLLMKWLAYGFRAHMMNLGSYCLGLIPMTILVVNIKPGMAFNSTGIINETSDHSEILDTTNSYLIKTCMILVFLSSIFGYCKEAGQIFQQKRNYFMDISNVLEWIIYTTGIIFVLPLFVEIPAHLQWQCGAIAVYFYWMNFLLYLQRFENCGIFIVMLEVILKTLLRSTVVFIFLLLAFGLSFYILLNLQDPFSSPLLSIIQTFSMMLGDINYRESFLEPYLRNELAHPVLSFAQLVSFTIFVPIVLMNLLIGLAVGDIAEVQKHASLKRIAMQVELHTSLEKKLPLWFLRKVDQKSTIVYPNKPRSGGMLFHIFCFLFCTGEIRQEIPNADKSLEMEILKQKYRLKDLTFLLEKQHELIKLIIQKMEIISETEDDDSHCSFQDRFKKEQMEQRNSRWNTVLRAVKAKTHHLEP

This assay addresses human TRPA1 (Homo sapiens (Human), UniProt O75762). The assay can be described thus: In vitro inhibition of human TRPA1, whole cell patch configuration. In kind it is cell-based. The settings on record: current activation 10 μM AITC, tested concentrations 320 pM to 3.2 μM, read-out: hTRPA1 IC50. On the procedure:
All currents were recorded in whole-cell configuration using EPC-9 and EPC-10 amplifiers and Patchmaster software (HEKA) or similar. […] The standard bath solution contained 150 mM NaCl, 10 mM HEPES, 10 mM glucose, 4.5 mM KCl, 1 mM EGTA, 3 mM MgCl2, with pH adjusted to 7.4 with NaOH. In some instances, 2 mM CaCl2 was added in place of EGTA and the concentration of MgCl2 was reduced to 1 mM.
Data were collected either by continuous recordings at −60 mV or by applying voltage ramps from a holding potential of −40 mV every 4 s. Continuous recordings were collected at 400 Hz and digitally filtered off-line at 10 Hz for presentation. Voltage ramps were applied from −100 mV or −80 mV to +100 mV or +80 mV over the course of 400 ms, and data were collected at 10 kHz and filtered at 2.9 kHz. Inward and outward currents were analyzed from the ramps at −80 and 80 mV, respectively. Liquid junction potential correction was not used.
Solutions were switched using a gravity-fed continuous focal perfusion system. To achieve rapid temperature changes, two temperature control, and perfusion systems were employed simultaneously. […] Temperatures were confirmed using a thermistor (Warner Instruments, TA-29), with temperatures at the recorded cell estimated to be within +/−2° C. of those reported.
The antagonist effects of compounds of Formula (I) against human TRPA1 (“hTRPA1”) in a whole cell patch configuration were evaluated using the in vitro assay described above.
Consider `C[C@@H](C(=O)Nc1cccc(-c2ccc(C(F)(F)F)nc2)n1)n1cnc2c1c(=O)n(Cc1ccccn1)c(=O)n2C` [Compound 1, (2S)-2-(3-methyl-2,6-dioxo-1-(pyridin-2-ylmethyl)-1,2,3,6-tetrahydropurin-7-yl)-N-(6-(6-(trifluoromethyl)pyridin-3-yl)pyridin-2-yl)propanamide], for which the concentration for half-maximal inhibition (IC50) is 28 nM.
In the case of `CC(=O)Cn1c(=O)c2c(ncn2[C@@H](C)C(=O)Nc2cccc(-c3ccc(C(F)(F)F)nc3)n2)n(C)c1=O` [Compound 2, (S)-2-(3-methyl-2,6-dioxo-1-(2-oxopropyl)-2,3-dihydro-1H-purin-7(6H)-yl)-N-(6′-(trifluoromethyl)-[2,3′-bipyridin]-6-yl)propanamide], the IC50 is 21 nM.
As for `CC(=O)Cn1c(=O)c2c(ncn2[C@@H](C)C(=O)Nc2cncc(-c3ccc(C(F)(F)F)nc3)n2)n(C)c1=O` [Compound 3, (S)-2-(3-methyl-2,6-dioxo-1-(2-oxopropyl)-2,3-dihydro-1H-purin-7(6H)-yl)-N-(6-(6-(trifluoromethyl)pyridin-3-yl)pyrazin-2-yl)propanamide], the figure is 49 nM; as for `CC(=O)Cn1c(=O)c2c(ncn2[C@@H](C)C(=O)Nc2cccc(-c3cnc(C(F)(F)F)nc3)n2)n(C)c1=O` [Compound 4, (S)-2-(3-methyl-2,6-dioxo-1-(2-oxopropyl)-2,3-dihydro-1H-purin-7(6H)-yl)-N-(6-(2-(trifluoromethyl)pyrimidin-5-yl)pyridin-2-yl)propanamide], 25 nM; as for `C[C@@H](C(=O)Nc1cccc(-c2cnc(C(F)(F)F)nc2)n1)n1cnc2c1c(=O)n(Cc1ccccn1)c(=O)n2C` [Compound 5, (S)-2-(3-methyl-2,6-dioxo-1-(pyridin-2-ylmethyl)-2,3-dihydro-1H-purin-7(6H)-yl)-N-(6-(2-(trifluoromethyl)pyrimidin-5-yl)pyridin-2-yl)propanamide], 39 nM.
Take `CC(=O)Cn1c(=O)c2c(ncn2[C@@H](C)C(=O)Nc2cncc(-c3cnc(C(F)(F)F)nc3)n2)n(C)c1=O` [Compound 6, (S)-2-(3-methyl-2,6-dioxo-1-(2-oxopropyl)-2,3-dihydro-1H-purin-7(6H)-yl)-N-(6-(2-(trifluoromethyl)pyrimidin-5-yl)pyrazin-2-yl)propanamide]: the IC50 was 39 nM.
In the case of `C[C@@H](C(=O)Nc1cncc(-c2cnc(C(F)(F)F)nc2)n1)n1cnc2c1c(=O)n(Cc1ccccn1)c(=O)n2C` [Compound 8, (S)-2-(3-methyl-2,6-dioxo-1-(pyridin-2-ylmethyl)-2,3-dihydro-1H-purin-7(6H)-yl)-N-(6-(2-(trifluoromethyl)pyrimidin-5-yl)pyrazin-2-yl)propanamide], the concentration for half-maximal inhibition (IC50) was determined as 44 nM.
For `C[C@@H](C(=O)Nc1cncc(-c2ccc(C(F)(F)F)nc2)n1)n1cnc2c1c(=O)n(Cc1ccccn1)c(=O)n2C` [Compound 9, (2S)-2-(3-methyl-2,6-dioxo-1-(pyridin-2-ylmethyl)-1,2,3,6-tetrahydropurin-7-yl)-N-(6-(6-(trifluoromethyl)pyridin-3-yl)pyrazin-2-yl)propanamide] the value was 59 nM; for `CC(C(=O)Nc1cccc(-c2cnc(C(F)(F)F)nc2)n1)n1cnc2c1c(=O)n(CC#N)c(=O)n2C` (centres unmarked) [Compound 10, 2-(1-(cyanomethyl)-3-methyl-2,6-dioxo-2,3-dihydro-1H-purin-7(6H)-yl)-N-(6-(2-(trifluoromethyl)pyrimidin-5-yl)pyridin-2-yl)propanamide], 24 nM.
For `C[C@@H](C(=O)Nc1cccc(-c2cnc(N3CC4CC4C3)nc2)n1)n1cnc2c1c(=O)n(CC#N)c(=O)n2C` (stereo partly drawn) [Compound 11, (2S)—N-(6-(2-(3-azabicyclo[3.1.0]hexan-3-yl)pyrimidin-5-yl)pyridin-2-yl)-2-(1-(cyanomethyl)-3-methyl-2,6-dioxo-2,3-dihydro-1H-purin-7(6H)-yl)propanamide] the value was 5 nM.
In the case of `C[C@@H](C(=O)Nc1cncc(-c2cnc(N3CC4CC4C3)nc2)n1)n1cnc2c1c(=O)n(CC#N)c(=O)n2C` (some centres unmarked) [Compound 12], the IC50 came out at 7 nM.

For the origin of these results see patent US10221177B2 (HYDRA BIOSCIENCES, INC., priority 2014, dated 2019).
